Assays:
Type in all cases: in vivo
[1] = tested on: galium (catchweed bedstraw, Galium aparine); assay: Test A greenhouse herbicide test, postemergence; conditions: for Galium plant response rating: 0 to 100 scale, 0 is no effect, 100 is complete control
Method in brief: (§1)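 Seedlings in a loam soil and sand mix received formulated compound postemergence at the one- to two-leaf stage. Greenhouse holding lasts approximately 10 d, then injury is scored visually relative to untreated plants, 0 meaning no effect and 100 complete control.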

[2] = tested on: blackgrass (Alopecurus myosuroides); assay: Test A greenhouse herbicide test, postemergence; conditions: for Blackgrass plant response rating: 0 to 100 scale, 0 is no effect, 100 is complete control
Method in brief: as §1

[3] = tested on: oat, wild (wild oat, Avena fatua); assay: Test C greenhouse herbicide test, postemergence
Method in brief: (§2)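 Plants grown in potting mix of peat moss, vermiculite, wetting agent and starter nutrients were sprayed postemergence at 2 to 18 cm height (1- to 4-leaf stage). After 13 to 15 d in the greenhouse, injury was visually rated against untreated controls on a 0–100 scale (0 no effect, 100 complete control).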

kochia (Kochia scoparia) [4] = assay: Test C greenhouse herbicide test, postemergence
Method in brief: as §2

[5] = tested on: ryegrass, Italian (Italian ryegrass, Lolium multiflorum); assay: Test A greenhouse herbicide test, pre- and postemergence
Method in brief: (§3)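 Visual injury ratings, 0 (no effect) to 100 (complete control), versus untreated plants after roughly 10 d in a greenhouse. Compounds, formulated in a surfactant-containing non-phytotoxic solvent, were sprayed on loam–sand soil after sowing (pre) or on one- to two-leaf plants 2–10 cm tall (post).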

[6] = tested on: pigweed (Amaranthus retroflexus); assay: as above
Method in brief: as §3

[7] = tested on: ragweed (common ragweed, Ambrosia elatior); assay: as above
Method in brief: as §3

[8] = tested on: barnyardgrass (Echinochloa crus-galli); assay: as above
Method in brief: as §3

[9] = tested on: foxtail, giant (giant foxtail, Setaria faberii); assay: as above
Method in brief: as §3

[10] = tested on: wheat (Triticum aestivum); assay: as above; conditions: Postemergence; for Wheat plant response rating: 0 to 100 scale, 0 is no effect, 100 is complete control
Method in brief: as §3

corn (Zea mays) = assay: as above; conditions: Postemergence; for Corn plant response rating: 0 to 100 scale, 0 is no effect, 100 is complete control
Method in brief: as §3

kochia (Kochia scoparia) [11] = assay: as above
Method in brief: as §3

[12] = 125 g ai/ha, 0 to 100 scale where 0 is no effect and 100 is complete control
[13] = Postemergence, 31 g ai/ha, 0 to 100 scale (0 no effect, 100 complete control)
[14] = Postemergence, 125 g ai/ha, scale 0 to 100, 0 is no effect, 100 is complete control
[15] = Postemergence, 250 g ai/ha, scale 0 to 100, 0 no effect, 100 complete control, 13 to 15 d
[16] = postemergence, 62 g ai/ha, scale 0 to 100, 0 no effect, 100 complete control
[17] = Postemergence, 125 g ai/ha, 0 to 100 scale where 0 is no effect and 100 is complete control
[18] = Postemergence, 500 g ai/ha, 0 to 100 scale, 0 is no effect, 100 is complete control
[19] = Preemergence, 125 g ai/ha, 0 to 100 scale where 0 is no effect and 100 is complete control
[20] = Preemergence, 500 g ai/ha, 0 to 100 scale, 0 no effect, 100 complete control
[21] = Preemergence, 500 g ai/ha, 0 to 100 scale where 0 is no effect and 100 is complete control
[22] = 500 g ai/ha, visual rating after approx. 10 d, 0 to 100 scale (0 no effect, 100 complete control)
[23] = Postemergence, 31 g ai/ha, scale 0 to 100 (0 no effect, 100 complete control)
[24] = Postemergence, 500 g ai/ha, visual rating after approx. 10 d, 0 to 100 scale (0 no effect, 100 complete control)
[25] = Postemergence, 1000 g ai/ha, 0 to 100 scale, 0 is no effect, 100 is complete control
[26] = Preemergence, 1000 g ai/ha, 0 to 100 scale, 0 no effect, 100 complete control

`Cc1ccc(-c2c(O)c(Br)nn(C)c2=O)c2ccccc12` [Compound 52] was tested, and the “Plant response rating, Galium” value [1, 12] was 100, the “Galium plant response rating” value ([1]; 500 g ai/ha) was 100 and the “Plant response rating, Blackgrass” value [2, 12] was 20. For the same compound, the “Blackgrass plant response rating” value ([2]; 500 g ai/ha) was 30, the “Oat, Wild plant response rating” value [3, 13] was 0 and the “Plant response rating, Oat, Wild” value [3, 14] was 0. The “Plant response rating, Oat, Wild” value [3, 15] was 0, the “Oat, Wild plant response rating” value [3, 16] was 0 and the “Kochia plant response rating” value (kochia (Kochia scoparia) [4]; [13]) was 0. The “Plant response rating, Kochia” value (kochia (Kochia scoparia) [4]; [14]) was 5, the “Plant response rating, Kochia” value (kochia (Kochia scoparia) [4]; [15]) was 70 and the “Kochia plant response rating” value (kochia (Kochia scoparia) [4]; [16]) was 0. For the same compound, the “Plant response rating, Ryegrass, Italian” value [5, 17] was 70, the “Ryegrass, Italian plant response rating” value [5, 18] was 80 and the “Ryegrass, Italian plant response rating” value [5, 19] was 80. The “Plant response rating, Ryegrass, Italian” value [5, 20] was 80, the “Plant response rating, Pigweed” value [6, 17] was 10 and the “Pigweed plant response rating” value [6, 18] was 30. The “Pigweed plant response rating” value [6, 19] was 10, the “Plant response rating, Pigweed” value [6, 20] was 60 and the “Plant response rating, Ragweed” value [7, 17] was 90. The “Ragweed plant response rating” value [7, 18] was 100, the “Ragweed plant response rating” value [7, 19] was 20 and the “Plant response rating, Ragweed” value [7, 20] was 80. The “Plant response rating, Barnyardgrass” value [8, 17] was 10, the “Barnyardgrass plant response rating” value [8, 18] was 50 and the “Barnyardgrass plant response rating” value [8, 19] was 50. The “Plant response rating, Barnyardgrass” value [8, 20] was 70, the “Plant response rating, Foxtail, Giant” value [9, 17] was 40 and the “Foxtail, Giant plant response rating” value [9, 18] was 50. The “Foxtail, Giant plant response rating” value [9, 19] was 40, the “Plant response rating, Foxtail, Giant” value [9, 20] was 60 and the “Plant response rating, Wheat” value [10, 12] was 0. For the same compound, the “Wheat plant response rating” value ([10]; 500 g ai/ha) was 0, the “Plant response rating, Corn” value (corn (Zea mays); [12]) was 0 and the “Corn plant response rating” value (corn (Zea mays); 500 g ai/ha) was 20. For the same compound, the “Plant response rating, Kochia” value (kochia (Kochia scoparia) [11]; [17]) was 40, the “Kochia plant response rating” value (kochia (Kochia scoparia) [11]; [18]) was 100 and the “Kochia plant response rating” value (kochia (Kochia scoparia) [11]; [19]) was 0. For the same compound, the “Plant response rating, Kochia” value (kochia (Kochia scoparia) [11]; [20]) was 80.
For `C#CCOC(=O)Oc1c(C)nn(C)c(=O)c1-c1c(C)sc2ccc(C)cc12` [Compound 87], the “Plant response rating, Galium” value [1, 12] was 90, the “Galium plant response rating” value ([1]; 500 g ai/ha) was 90 and the “Plant response rating, Blackgrass” value [2, 12] was 80. The “Blackgrass plant response rating” value ([2]; 500 g ai/ha) was 80, the “Plant response rating, Oat, Wild” value [3, 14] was 85 and the “Plant response rating, Oat, Wild” value [3, 15] was 90. The “Oat, Wild plant response rating” value [3, 16] was 90, the “Plant response rating, Kochia” value (kochia (Kochia scoparia) [4]; [14]) was 90 and the “Plant response rating, Kochia” value (kochia (Kochia scoparia) [4]; [15]) was 95. For the same compound, the “Kochia plant response rating” value (kochia (Kochia scoparia) [4]; [16]) was 90, the “Plant response rating, Ryegrass, Italian” value [5, 17] was 80 and the “Ryegrass, Italian plant response rating” value [5, 18] was 80. The “Ryegrass, Italian plant response rating” value [5, 19] was 90, the “Plant response rating, Ryegrass, Italian” value [5, 21] was 100 and the “Plant response rating, Pigweed” value [6, 17] was 80. For the same compound, the “Pigweed plant response rating” value [6, 18] was 90, the “Pigweed plant response rating” value [6, 19] was 100 and the “Plant response rating, Pigweed” value [6, 21] was 100. For the same compound, the “Plant response rating, Ragweed” value [7, 17] was 80, the “Ragweed plant response rating” value [7, 18] was 90 and the “Ragweed plant response rating” value [7, 19] was 70. For the same compound, the “Plant response rating, Ragweed” value [7, 21] was 80, the “Plant response rating, Barnyardgrass” value [8, 17] was 40 and the “Barnyardgrass plant response rating” value [8, 18] was 80. The “Barnyardgrass plant response rating” value [8, 19] was 50, the “Plant response rating, Barnyardgrass” value [8, 21] was 80 and the “Plant response rating, Foxtail, Giant” value [9, 17] was 70. The “Foxtail, Giant plant response rating” value [9, 18] was 80, the “Foxtail, Giant plant response rating” value [9, 19] was 80 and the “Plant response rating, Foxtail, Giant” value [9, 21] was 100. The “Plant response rating, Wheat” value [10, 12] was 0, the “Wheat plant response rating” value ([10]; 500 g ai/ha) was 0 and the “Plant response rating, Corn” value (corn (Zea mays); [12]) was 0. For the same compound, the “Corn plant response rating” value (corn (Zea mays); 500 g ai/ha) was 0, the “Plant response rating, Kochia” value (kochia (Kochia scoparia) [11]; [17]) was 90 and the “Kochia plant response rating” value (kochia (Kochia scoparia) [11]; [18]) was 90. The “Kochia plant response rating” value (kochia (Kochia scoparia) [11]; [19]) was 80 and the “Plant response rating, Kochia” value (kochia (Kochia scoparia) [11]; [21]) was 90.
With `CCC(=O)Oc1c(Cl)nn(C)c(=O)c1-c1c(C)sc2ccc(Cl)cc12` [Compound 111] the “Plant response rating, Galium” value [1, 12] was 90, the “Plant response rating, Galium” value [1, 22] was 100 and the “Plant response rating, Blackgrass” value [2, 12] was 30. The “Plant response rating, Blackgrass” value [2, 22] was 70, the “Plant response rating, Oat, Wild” value [3, 23] was 55 and the “Plant response rating, Oat, Wild” value [3, 14] was 90. The “Plant response rating, Oat, Wild” value [3, 15] was 98, the “Plant response rating, Kochia” value (kochia (Kochia scoparia) [4]; [23]) was 80 and the “Plant response rating, Kochia” value (kochia (Kochia scoparia) [4]; [14]) was 90. The “Plant response rating, Kochia” value (kochia (Kochia scoparia) [4]; [15]) was 95, the “Plant response rating, Ryegrass, Italian” value [5, 17] was 90 and the “Plant response rating, Ryegrass, Italian” value [5, 24] was 100. The “Ryegrass, Italian plant response rating” value [5, 19] was 90, the “Plant response rating, Ryegrass, Italian” value [5, 21] was 100 and the “Plant response rating, Pigweed” value [6, 17] was 100. For the same compound, the “Plant response rating, Pigweed” value [6, 24] was 100, the “Pigweed plant response rating” value [6, 19] was 90 and the “Plant response rating, Pigweed” value [6, 21] was 100. For the same compound, the “Plant response rating, Ragweed” value [7, 17] was 70, the “Plant response rating, Ragweed” value [7, 24] was 100 and the “Ragweed plant response rating” value [7, 19] was 80. For the same compound, the “Plant response rating, Ragweed” value [7, 21] was 90, the “Plant response rating, Barnyardgrass” value [8, 17] was 40 and the “Plant response rating, Barnyardgrass” value [8, 24] was 90. For the same compound, the “Barnyardgrass plant response rating” value [8, 19] was 70, the “Plant response rating, Barnyardgrass” value [8, 21] was 100 and the “Plant response rating, Foxtail, Giant” value [9, 17] was 70. For the same compound, the “Plant response rating, Foxtail, Giant” value [9, 24] was 100, the “Foxtail, Giant plant response rating” value [9, 19] was 80 and the “Plant response rating, Foxtail, Giant” value [9, 21] was 100. For the same compound, the “Plant response rating, Wheat” value [10, 12] was 20, the “Plant response rating, Wheat” value [10, 22] was 30 and the “Plant response rating, Corn” value (corn (Zea mays); [12]) was 0. The “Plant response rating, Corn” value (corn (Zea mays); [22]) was 20, the “Plant response rating, Kochia” value (kochia (Kochia scoparia) [11]; [17]) was 40 and the “Plant response rating, Kochia” value (kochia (Kochia scoparia) [11]; [24]) was 90. For the same compound, the “Kochia plant response rating” value (kochia (Kochia scoparia) [11]; [19]) was 60 and the “Plant response rating, Kochia” value (kochia (Kochia scoparia) [11]; [21]) was 100.
`Cc1ccc2ccc(C)c(-c3c(O)c(C)nn(C)c3=O)c2c1` [Compound 60] was tested, and the “Galium plant response rating” value ([1]; 1000 g ai/ha) was 100, the “Blackgrass plant response rating” value ([2]; 1000 g ai/ha) was 90 and the “Oat, Wild plant response rating” value [3, 13] was 85. For the same compound, the “Plant response rating, Oat, Wild” value [3, 14] was 95, the “Plant response rating, Oat, Wild” value [3, 15] was 95 and the “Oat, Wild plant response rating” value [3, 16] was 95. For the same compound, the “Kochia plant response rating” value (kochia (Kochia scoparia) [4]; [13]) was 90, the “Plant response rating, Kochia” value (kochia (Kochia scoparia) [4]; [14]) was 100 and the “Plant response rating, Kochia” value (kochia (Kochia scoparia) [4]; [15]) was 100. For the same compound, the “Kochia plant response rating” value (kochia (Kochia scoparia) [4]; [16]) was 90, the “Ryegrass, Italian plant response rating” value [5, 25] was 100 and the “Plant response rating, Ryegrass, Italian” value [5, 26] was 100. The “Pigweed plant response rating” value [6, 25] was 100, the “Plant response rating, Pigweed” value [6, 26] was 100 and the “Ragweed plant response rating” value [7, 25] was 100. The “Plant response rating, Ragweed” value [7, 26] was 100, the “Barnyardgrass plant response rating” value [8, 25] was 90 and the “Plant response rating, Barnyardgrass” value [8, 26] was 80. For the same compound, the “Foxtail, Giant plant response rating” value [9, 25] was 90, the “Plant response rating, Foxtail, Giant” value [9, 26] was 90 and the “Wheat plant response rating” value ([10]; 1000 g ai/ha) was 70. For the same compound, the “Corn plant response rating” value (corn (Zea mays); 1000 g ai/ha) was 50, the “Kochia plant response rating” value (kochia (Kochia scoparia) [11]; [25]) was 100 and the “Plant response rating, Kochia” value (kochia (Kochia scoparia) [11]; [26]) was 80.
